Test results published in patent USRE46397E1, “Slow release of organic salts of local anesthetics for pain relief” (SVIP5 LLC, priority 2007, dated 2017).
Read-outs that look alike come from different tables or passages of the source.

Assays:
male, Sprague-Dawley rat = experiment: Radiant heat pain threshold test after introducing particles into a paraspinal pocket; assay type: in vivo; conditions: 20 seconds cut-off, treated right side
Experimental: To test the local anesthetic efficacy and duration of effect induced by bupivacaine palmitate particles, a treatment and control side in a male, Sprague-Dawley rat (250-300 g) was employed. The animal was anesthetized with isoflurane inhalation (2.5-3%), whereupon the back was partly shaved. A 16 g needle was introduced deep to the shaved skin on the left mid paraspinal back and moved side to side to clear a small (1.0 cm diameter) pocket. A similar procedure was performed on the right side. The needle was then used to introduce test local anesthetic bupivacaine palmitate particles into the pocket on the right side.
The rat was awakened and placed in a Decapicone for restraint. As restraint itself can produce endogenous analgesic effects, the animal was allowed to rest quietly in the cone for 15 min prior to any testing. Radiant heat from a focused projection bulb with area of approximately 0.5 cm^2 was then directed to the test areas to assess the pain threshold several times on each side. The light was applied until the rat attempted to move within the restraint cone, at which time the light heat stimulus was turned off. The light heat stimulus was never allowed to exceed a 20 seconds interval in order to avoid permanent damage to the skin or undue discomfort.
The post-procedural results at 15 min, 1 and 2 days are represented in average number of seconds before movement: […]

[1] = cited from earlier work; for Maximum Dose: without epinephrine
[2] = cited from earlier work; for Onset: in vivo; for Duration: without epinephrine

Structure (SMILES) | average number of seconds before movement (male, Sprague-Dawley rat; Day 0 (15 min post-procedure), radiant heat) [s] | average number of seconds before movement (male, Sprague-Dawley rat; Day 1, radiant heat) [s] | average number of seconds before movement (male, Sprague-Dawley rat; Day 2, radiant heat) [s] | Maximum Dose (with Epinephrine) [1] | Maximum Dose [1] [mg/kg] | Onset [2] | Duration (with Epinephrine) [2] | Duration [2] [h] | Maximum Dose ([1]; total in 24 hrs) [mg in 24 hrs]
CCCCN1CCCCC1C(=O)Nc1c(C)cccc1C (stereo not shown) [Bupivacaine] | >20 | 16 | 7.6 | (3 mg/kg) | 2.5 | Slow | (8 h) | 4 | –
CCN(CC)CCOC(=O)c1ccc(N)cc1Cl [Chloroprocaine] | – | – | – | (15 mg/kg) | 10 | Rapid | (90 min) | 0.5 | –
CCCN(CC)C(CC)C(=O)Nc1c(C)cccc1C (stereo not shown) [Etidocaine] | – | – | – | (4 mg/kg) | 2.5 | Rapid | (8 h) | 4 | –
CCCCN1CCCC[C@H]1C(=O)Nc1c(C)cccc1C [Levobupivacaine] | – | – | – | – | 2.0 | Medium | (8-12 h) | 4 to 6 | 400
CCN(CC)CC(=O)Nc1c(C)cccc1C [Lidocaine, 2-(diethylamino)-N-(2,6-dimethylphenyl)-acetamide] | – | – | – | (7 mg/kg) | 4.5 | Rapid | (240 min) | 2 | –
Cc1cccc(C)c1NC(=O)C1CCCCN1C (stereo not shown) [Mepivacaine] | – | – | – | (7 mg/kg) | 5 | Rapid | (360 min) | 3 | –
CCCNC(C)C(=O)Nc1ccccc1C (stereo not shown) [Prilocaine] | – | – | – | (7.5 mg/kg) | 5 | Medium | (360 min) | 1.5 | –
CCN(CC)CCOC(=O)c1ccc(N)cc1 [Procaine] | – | – | – | (10 mg/kg) | 8 | Slow | (90 min) | 0.75 | –
CCCN1CCCC[C@H]1C(=O)Nc1c(C)cccc1C [Ropivacaine] | – | – | – | – | 2 to 3 | Medium | (6 h) | 3 | –
CCCCNc1ccc(C(=O)OCCN(C)C)cc1 [Tetracaine] | – | – | – | (2.5 mg/kg) | 1.5 | Slow | (10 h) | 3 | –
